In patent US20210282401A1, “FUNGICIDAL COMPOUNDS AND MIXTURES FOR FUNGAL CONTROL IN CEREALS” (Dow AgroSciences LLC, priority 2016, published 2021):

Assays:
Assay type in all cases: in vivo
[1] = system: Puccinia recondita (PUCCRT); assay: Field assessment of brown rust of wheat (PUCCRT), relative AUDPC, 2 field trials; conditions: based on AUDPC
Source text: (§1) Treatments consisting of the compound of Formula I and the fungicide picoxystrobin were applied either using individually or as a two-way mixture with the compound of Formula I. The compound of Formula I was applied with Agnique BP-420 (50% w/w at 0.3% v/v) at 75 and 150 g ai/ha and picoxystrobin (Acanto) was applied at 125 and 200 g ai/ha. The commercial standard used in the studies was Fluxapyroxad (Imtrex) and was applied at 100 g ai/ha.
Field Assessment of Puccinia recondita (PUCCRT) in Wheat:
Fungicidal treatment containing the compound of Formula I and picoxystrobin, either individually or as a two mixture, were assessed against brown rust of wheat (PUCCRT) in two separate field trials. In the first trial, fungicidal treatments were applied at B37-39 (protectant, approximately 0% infection at application) growth stage of wheat (TRZAW, MV Vanek variety) under natural infection of brown rust. The treatment was part of an experimental trial designed as a randomized complete block with four replications and a plot of approximately 2×3 m. Fungicidal treatments were applied at a water volume of 200 L/ha, using a backpack plot sprayer with a TEEJET QJ90-2XTT110 015 Nozzle.
In the second trial, fungicidal treatments containing the compound of Formula I and picoxystrobin, either individually or as a two way mixture, were applied at B33 (curative, approximately 6.6% infection at application) growth stage of wheat (TRZAW, Miradoux variety) under natural infection of brown rust. The treatments were part of an experimental trial designed as a randomized complete block with four replications and a plot of approximately 2×3 m. Fungicidal treatments were applied at a water volume of 200 L/ha, using a backpack plot sprayer with a HARDI MD110-02 Nozzle.
(§2) Disease severity (percentage of visual diseased foliage on whole plot or leaves) in both field trials was assessed at 5 weeks after application and was recorded following EPPO PP1/26 guideline prescriptions. Area under the disease progress curve (AUDPC) was calculated for each plot in both trials using the sets of recorded severity data. Relative AUDPC (% control based on AUDPC) was calculated as percent of the nontreated control. Final results for the control of brown rust of wheat by the compound of Formula I, picoxystrobin, and mixtures are reported as an average of the relative AUDPC calculated over both field trials. Statistical analysis was done according to ANOVA and Tukey's test (p=0.10).

[2] = system: Rhynchosporium secalis (RHYNSE); assay: Field assessment of scald of barley (RHYNSE), trials 2 and 3, relative AUDPC; conditions: Trial 2, 3, based on AUDPC
Source text: (§3) Field Assessment of Mixtures of the Compound of Formula I and Pyraclostrobin on Rhynchosporium secalis (RHYNSE) in Barley:
In the remaining trials, treatments consisting of the compound of Formula I and the fungicide pyraclostrobin were applied either using individually or as a two-way mixture with the compound of Formula I. […] Commercial standards used in these studies were SiltraXpro (200 g ai/L prothioconazole+60 g ai/ha bixafen) applied at 260 g ai/ha, and Opera (133 g/L pyraclostrobin+50 g/L epoxiconazole) applied at 220 g ai/ha. All treatments were part of an experimental trial designed as a randomized complete block with four replications.
(§4) Disease severity (percentage of visual diseased foliage on whole plot or leaves) in both trials was recorded following EPPO PP1/26 guideline prescriptions. Area under the disease progress curve (AUDPC) was calculated for each plot in both trials using the sets of recorded severity data. Relative AUDPC (% control based on AUDPC) was calculated as percent of the nontreated control. Final results for the control of scald of barley by the compound of Formula I, pyraclostrobin and mixtures are reported as an average of the relative AUDPC calculated over both field trials. Statistical analysis was done according to ANOVA and Tukey's test (p=0.10).

[3] = system: Puccinia striiformis (PUCCST); assay: Field assessment of yellow rust of wheat (PUCCST), relative AUDPC, 2 field trials; conditions: based on AUDPC
Source text: as §1
Field Assessment of Puccinia striiformis (PUCCST) in Wheat:
Fungicidal treatments containing the compound of Formula I and picoxystrobin, either individually or as a two way mixture, were assessed against yellow rust of wheat (PUCCST) in two separate field trials. […]
as §2, with “4-7” for “5”, “yellow” for “brown”, “Statistical analysis was done according to ANOVA and Tukey's test (p=0.10).” left out

[4] = system: Puccinia hordei (PUCCHD); assay: Field assessment of rust of barley (PUCCHD), relative AUDPC, 2 field trials; conditions: based on AUDPC
Source text: Treatments consisting of the compound of Formula I and the fungicide pyraclostrobin were applied either using individually or as a two-way mixture with the compound of Formula I. The compound of Formula I was applied with Agnique BP-420 (50% w/w at an active:adjuvant ratio of 1:2) at 75, 100 and 150 g ai/ha and with pyraclostrobin (Comet 200) at 100, 150 and 200 g ai/ha. Commercial standards used in these studies were Proline 275 (275 g ai/L Prothioconazole), applied at 150 g ai/ha, and SiltraXpro (200 g ai/L prothioconazole+60 g ai/ha bixafen), applied at 195 g ai/ha.
Field Assessment of Mixtures of the Compound of Formula I and Pyraclostrobin on Puccinia Hordie (PUCCHD) in Barley: […]
Fungicidal treatments containing the compound of Formula I and pyraclostrobin, either individually or as a two-way mixture, were assessed against rust of barley (PUCCHD) in two separate field trials. In both trials, fungicidal treatments were applied at B37-39 growth stages of winter barley (Lomeritt variety) under natural infection of barley rust. All treatments were part of an experimental trial designed as a randomized complete block with four replications.
as §4, with “in both field trials was” for “in both trials was”, “control of rust of barley” for “control of scald of barley”

[5] = system: Pyrenophora teres (PYRNTE); assay: Field assessment of net blotch of barley (PYRNTE), relative AUDPC; conditions: based on AUDPC
Source text: (§5) Commercial standards used in these studies were Proline 275 (275 g ai/L Prothioconazole), applied at 150 g ai/ha, and SiltraXpro (200 g ai/L prothioconazole+60 g ai/ha bixafen), applied at 195 g ai/ha.
Field Assessment of Mixtures of the Compound of Formula I and Pyraclostrobin on Pyrenophora teres (PYRNTE) in Barley:
[…] […], fungicidal treatments were applied at B31-37 growth stages of winter barley and sprong barley (HORVW, Lomeritt variety; HORVS, Scarlett variety) under natural infection of net blotch (protectant tests, 1% infection on leaf 4 and 10% infection on leaf 6 at application). All treatments were part of an experimental trial designed as a randomized complete block with four replications.
[…] […] Relative AUDPC (% control based on AUDPC) was calculated as percent of the nontreated control. […] Statistical analysis was done according to ANOVA and Tukey's test (p=0.10).

[6] = system: Rhynchosporium secalis (RHYNSE); assay: Field assessment of scald of barley (RHYNSE), trial 1, relative AUDPC; conditions: Trial 1, based on AUDPC
Experimental: as §5, §3
Fungicidal treatments containing the compound of Formula I and fluxapyroxad, either individually or as a two-way mixture, were assessed against scald of barley (RHYNSE) in three field trials. In the first trial, fungicidal treatments were applied at B37-39 growth stages of winter barley (HORVW, Maris Otter variety) under natural infection of barley scald (protectant test, approximately 1% infection on leaf 4 at application). All treatments were part of an experimental trial designed as a randomized complete block with four replications.
Disease severity (percentage of visual diseased foliage on whole plot or leaves) in the first trial was recorded following EPPO PP1/26 guideline prescriptions. Area under the disease progress curve (AUDPC) was calculated for each plot in the trial using the sets of recorded severity data. Relative AUDPC (% control based on AUDPC) was calculated as percent of the nontreated control. […] Statistical analysis was done according to ANOVA and Tukey's test (p=0.10).

N#Cc1ccc(Oc2ccc(C(F)(F)C(O)(Cn3ncnc3S)c3ccc(F)cc3F)nc2)cc1 (stereo not drawn) [Compound I, 4-((6-(2-(2,4-difluorophenyl)-1,1-difluoro-2-hydroxy-3-(5-mercapto-1H-1,2,4-triazol-1-yl)propyl)pyridin-3-yl)oxy)benzonitrile]
PUCCRT % Control ([1]; 75 g ai/ha): 90.7%
PUCCRT % Control ([1]; 150 g ai/ha): 91.4%
RHYNSE % Control ([2]; 80 g ai/ha): 15.6%
RHYNSE % Control ([2]; 125 g ai/ha): 38.6%

CO/C=C(/C(=O)OC)c1ccccc1COc1cccc(C(F)(F)F)n1 [Picoxystrobin, methyl (E)-3-methoxy-2-[2-(6-trifluoromethyl-2-pyridyloxymethyl)phenyl]acrylate]
PUCCRT % Control ([1]; 125 g ai/ha): 64.6%
PUCCRT % Control ([1]; 200 g ai/ha): 81.1%
PUCCST % Control ([3]; 125 g ai/ha): 34.6%
PUCCST % Control ([3]; 200 g ai/ha): 43.2%

COC(=O)N(OC)c1ccccc1COc1ccn(-c2ccc(Cl)cc2)n1 [Pyraclostrobin, methyl N-[2-[[[1-(4-chlorophenyl)-1H-pyrazol-3-yl]oxy]methyl]phenyl]-N-methoxycarbamate]
PUCCHD % Control ([4]; 100 g ai/ha): 63.3%
PUCCHD % Control ([4]; 150 g ai/ha): 64.4%
PUCCHD % Control ([4]; 200 g ai/ha): 78.7%
PYRNTE % Control ([5]; 100 g ai/ha): 46.5%
PYRNTE % Control ([5]; 150 g ai/ha): 60.5%
PYRNTE % Control ([5]; 200 g ai/ha): 69.8%
RHYNSE % Control ([6]; 100 g ai/ha): 41.2%
RHYNSE % Control ([6]; 150 g ai/ha): 45.0%
RHYNSE % Control ([6]; 200 g ai/ha): 47.8%
RHYNSE % Control ([2]; 200 g ai/ha): 43.0%
